Reference: a melting point compilation (Tetko et al.; mined from patent text by program, amines drawn as free bases though some values may be those of a salt)

melting point	SMILES
115 to 116 °C	N#CSCCNc1cc(Cl)ccc1[N+](=O)[O-]
229 °C	CC(C)(C)C1=NN(c2ccc(C(=O)O)cc2)C(c2ccccc2Cl)C1 (configuration not stated)
> 300 °C	O=C(Nc1ccccc1)Nc1cccc(Nc2ncnc3[nH]cc(C(=O)c4ccccc4)c23)c1
177 to 181 °C	COC(=O)c1cccc([N+](=O)[O-])c1CS(=O)(=O)NC(=O)Nc1nc(OC)cc(OC)n1
65 to 115 °C	CC(=O)N(O)Cc1ccc2c(c1)OCc1ccccc1C2=O
82 to 84 °C	O=C(O)CCCCCCCNS(=O)(=O)c1ccccc1
208 to 210 °C	CNC(=O)N1CC(Oc2ccc(C(N)=O)cc2)C1
132 to 133 °C	O=S1NC(Cc2ccc3c(c2)OCO3)=NO1 (configuration not stated)
134 to 136 °C	O=C(CCCCN1CCOCC1)c1ccc2c(c1)Cc1cc(C(=O)CCCCN3CCOCC3)ccc1-2
180 to 182 °C	CS(=O)c1ccc(-c2c(-c3ccncc3)nc3n2CCC3)cc1 (configuration not stated)
148 to 149 °C	O=C(c1ccc(F)c(F)c1)N1CCCC(c2noc(-c3ncc[nH]3)n2)C1 (configuration not stated)
138 to 141 °C	CCc1cccc(C)c1CNc1cc(C(=O)N(C)C)cc2c1nc(CO)n2C
> 275 °C	Oc1ccc(-c2nc(-c3ccc(O)cc3O)nc(-c3cccn3Cc3ccccc3)n2)c(O)c1
140 to 142 °C	CC(C)(C)OC(=O)NC1CCCCCC=CC2CC2(C(=O)NS(=O)(=O)C2CC2)NC(=O)C2CC(OC(=O)c3ccccc3)CN2C1=O (configuration not stated)
219 to 222 °C	CC(=O)N(c1nc2nc(C)cc(C)n2n1)S(=O)(=O)c1c(Cl)cccc1Cl
156 to 158 °C	O=C(O)COC1=C(Cc2ccc3c(Cl)cccc3c2)C(=O)CC1
129 to 130 °C	Cn1c(CC#N)ccc1C(=O)c1ccc(Cl)cc1Cl
107 to 108 °C	CN(C)CCCNCC(O)C(O)C(O)C(O)CO (configuration not stated)
160 to 163 °C	Nc1sc2c(c1C(=O)c1ccc(Br)s1)CCCC2
216 °C	O=C(NNC1NS(=O)(=O)c2ccccc21)Oc1ccccc1 (configuration not stated)
181 to 185 °C	CCOC(CNC(=S)Nc1cccc2nc(C)ccc12)OCC
155 to 156 °C	CCOC(=O)c1cc(NCc2c(C)cccc2C)c2nc(C)n(COCc3ccccc3)c2c1

melting point	SMILES
163 to 164 °C	Cc1nc(-n2cnn(CCNc3ccc(F)cc3)c2=O)sc1C(=O)NCc1cccnc1
149 to 150 °C	CCCCCS(=O)(=O)NC(=O)c1ccc2nc(C)n(Cc3ccc(N(C)C(=O)OCC)cc3Cl)c2n1
203 to 204 °C	Cc1nc(-c2ccccc2)n(-c2ccc(S(N)(=O)=O)cn2)n1
80 to 89 °C	CCOC(=O)C(C(=O)C(C)C)C(CC(=O)C(C)(C)C)c1ccc(F)cc1 (configuration not stated)
184 to 186 °C	Nc1nc(-c2ccccc2Cl)nc(N2CCCCC2)n1
116 to 117 °C	COc1ccc([C@@H](O)[C@@H](N)Cc2ccc(C(F)(F)F)cc2)cc1 (racemic)
217 °C	OC12CC3CC(O)(C1)CC(O)(C3)C2
314 to 330 °C	Cc1cc(Cl)c2c(ccc3nc(C)[nH]c32)n1
> 300 °C	CC(C)COC(=O)Nc1ccc(Sc2c(O)c3c(Cl)cc(Cl)cc3[nH]c2=O)cc1
150 to 152 °C	CCOc1cc(F)ccc1-c1noc2c(Cl)c(OC)ccc12
127 to 129 °C	O=C(C#Cc1ccc(Cl)cc1)Nc1ccc2c(ccn2CCN2CCCC2)c1
77.5 to 78.5 °C	CC(C)(C)OC(=O)N(OCc1ccccc1)C(=O)OC(C)(C)C
161 to 165 °C	CC(=O)ON=C(N)c1ccc(C(=O)N2CCN(C(=O)[C@@H]3CCCN3S(=O)(=O)c3ccc(Cl)c(COc4cccc5ncc(C)nc45)c3Cl)CC2)cc1
113 to 115 °C	Cc1cc(C2CC2)nc(N)n1
139 to 140 °C	C=C(C)c1ccccc1N1CCN(C(=O)Nc2cc(C)c(C)nc2OC)CC1
180 to 184 °C	COC(=O)C1=C(CCc2ccccc2)NC(CC(=O)N2CCN(CC(=O)N3CCCC3)CC2)=C(C(=O)OC)C1c1c(Cl)cccc1Cl (configuration not stated)
147 to 148 °C	C[C@@H](N(C(=O)CN)C(=O)c1ccc(C(F)(F)F)cc1)[C@](O)(Cn1cncn1)c1ccc(F)cc1F (relative stereo)
154 to 156 °C	CNc1c2oc3ccccc3c2nn1C
195 to 197 °C	COc1cc(C(=O)OC(C)(C)C)ccc1Cn1cc(CC(C)C(=O)O)c2ccc(C(=O)NCC3CCCC3)cc21 (configuration not stated)
132 to 134 °C	COC(=O)C(O)=Cc1ncc(Cc2ccc(F)cc2)cn1
108 to 110 °C	OC1c2cc(OCc3ccccn3)ccc2OCC1Cc1cccnc1 (configuration not stated)
103 to 106 °C	CCOC(=O)c1cc(-n2c(=O)c3c(n(COC)c2=O)CCC3)ccc1Cl

melting point	SMILES
127 °C	CCCC1=NN(c2ccc(Br)cc2)C(=O)C1=CNc1ccccc1CC
46 to 48 °C	CC(C)C[C@H](NS(=O)(=O)c1ccc(N(C)C)cc1)C(=O)N[C@H](C#N)CCc1ccccc1
180 to 181 °C	O=C(NCc1ccccc1)c1ccnc(NC(=O)c2cc(F)ccc2Cl)c1
218 to 220 °C	CC1(C#CC2(C(F)(F)F)c3cc(Cl)ccc3NC(=O)N2C2CC2)CC1 (configuration not stated)
289 to 290 °C	COc1cc(OC)cc(-c2nc3ccc(Nc4ccncc4)cc3c(=O)[nH]2)c1
63 to 65 °C	COc1ccc(CCNc2c(C)c(C)c3c(c2C)C(c2ccc(C(C)C)cc2)C(C)(C)O3)cc1 (configuration not stated)
78 to 79 °C	CCOC(=O)c1cc2c(C)cccc2n1CCC(=O)OC(C)(C)C
123 °C	COc1ccc(CC2(C)CN(C(c3ccccc3)c3ccccc3)CCN2)cc1OC (configuration not stated)
158 to 159 °C	COc1ccc(CNC(Nc2ccccc2)=C(C#N)C(=O)OC(C)(C)C)cc1
221 to 222 °C	CC1(C)OC(=S)Nc2ccc(-c3cc(F)cc(Br)c3)cc21
267 to 269 °C	O=C(c1ccc(S(=O)(=O)c2ccc3cc(Cl)ccc3c2)cc1)N1CCN(c2ccncc2)CC1
229 to 230 °C	Cc1c([N+](=O)[O-])oc2ccc(-c3ccc(CC(=O)O)cc3)cc12
192 to 195 °C	CC(c1oc2ccccc2c(=O)c1-c1cccc(F)c1)n1nc(-c2csc(C=O)c2)c2c(N)ncnc21 (configuration not stated)
112 to 113 °C	Cc1cccc(CC(=O)O)c1OCCCc1cn(-c2ccc(Cl)cn2)nc1C(C)(C)C
195 to 197 °C	CCCOc1ccccc1-c1nc2cc(N)c(N)cc2c(=O)[nH]1
238 to 239 °C	CCCc1nc2ccccc2n1Cc1ccc(-c2ncccc2C(=O)O)cc1
235 to 236 °C	CCN1CCN(c2ccnc3c(NC(=O)c4c(Cl)cccc4Cl)ccc(C)c23)C1=O
198 to 200 °C	O=P(O)(O)C(O)(Cc1cccc(Cl)c1)P(=O)(O)O
73 to 76 °C	CCOC(=O)C(=CNc1nnc(C(F)(F)F)s1)C(=O)c1cc(F)c(Cl)nc1Cl
132 to 135 °C	Clc1ccc(OC(C(OCc2ccc(Cl)cc2Cl)c2ccc(Cl)cc2Cl)n2cncn2)cc1 (configuration not stated)

SMILES	melting point
Clc1ccc2c(C3=CCN(CCNc4ccccn4)CC3)c[nH]c2c1	217 to 219 °C
CSC(C)=NOC(=O)N(C)SN(C(C)C)P1(=O)OCCCO1	134 to 135 °C
CCC(=O)N1N=C(c2ccc([N+](=O)[O-])cc2)c2cc3c(cc2CC1C)OCO3 (configuration not stated)	189 to 190 °C
